# Assay: Sensory panel astringency ranking after brushing with toothpaste samples
# Assay type: in vivo
# Conditions: for astringency ratings compared to those of the standard toothpaste base and the current market product: flavour material at 1000 ppm in toothpaste base with 0.75% zinc citrate, statement in words; for Astringency Rating (0-10): mean rating by a panel of three trained experts, 0 = no astringency, 10 = strong astringency, ingredients at 1000 ppm (0.1% w/w) in Standard Toothpaste Base with 0.75% Zinc Citrate, 30 seconds brushing, spit out, one water rinse
# Method: Differing flavour ingredients were added, at a concentration of 1000 ppm, to a non-flavoured toothpaste base containing 0.75% zinc citrate (ZCT).
# Measured samples, of equal weight, of the non-flavoured toothpaste base containing 0.75% ZCT and the same toothpaste base modified with flavour ingredients were then placed on toothbrushes. The samples were tested by a panel of three independent trained experts. The panelists were instructed to brush their teeth for 30 seconds, spit out and rinse once with water. The subjects were then asked to rank the astringency on a scale of 0 to 10 for each sample, 0 representing no astringency and 10 representing strong astringency. A current market product was also tested in the same way.
# Table 1 lists the flavour ingredients added to the non-flavoured toothpaste base containing 0.75% zinc citrate, along with the mean astringency rating of each sample. Also included in table 1 is the mean astringency rating of the non-flavoured toothpaste base containing 0.75% ZCT and the current market product.
Structure (SMILES),astringency ratings compared to those of the standard toothpaste base and the current market product,Astringency Rating (0-10)
"CC1=C(O)C(=O)CC1 [Cyclotene, 2-hydroxy-3-methyl-2-cyclopenten-1-one]",significantly lower astringency ratings,4.5
"CCc1occc(=O)c1O [Ethyl Maltol, 2-ethyl-3-hydroxy-4H-pyran-4-one]",significantly lower astringency ratings,3.5
"Cc1occc(=O)c1O [Maltol, 3-hydroxy-2-methyl-4H-pyran-4-one]",significantly lower astringency ratings,3.8
"COc1cc(C=O)ccc1O [Vanillin, reference compound]",–,6.5

# From US20120082631A1, “COMPOSITIONS” (priority 2009, published 2012)
